In patent publication US20260314597A1, “A NOVEL APPROACH TO INTERFERE IN THE PHENYLPROPANOID BIOSYNTHETIC PATHWAY TO REDUCE PINK-RIB DISORDER IN FRESH LETTUCE” (University of Florida Research Foundation, Inc., priority 2022, published 2026):
Entries after “also recorded” stand apart in the source; their conditions may differ.

Legend:
[1] = tested on: chlorogenic acid formation in lettuce midribs; assay: Chlorogenic acid concentration in treated wounded midribs (HPLC); format: in vivo, lettuce (iceberg, Romaine); conditions: 5 d at 5° C.; for chlorogenic acid concentration: L-cysteine 4.1 mM or melatonin 4.3 mM; for effect on chlorogenic acid concentration: iceberg and Romaine, vs wounded
Text: (§1) In all tests, experimental setup began immediately upon arrival to the laboratory. 90 outer leaves were randomly selected from 18 to 22 lettuce heads that met commercial and damage-free quality standards. A midrib segment (12.5 cm) was excised from the center of each leaf and excess leaf blade tissue was trimmed parallel to the midrib. This procedure was adapted from the wounding procedure of Cantwell (2016). Each midrib was then partially sliced transversally at 1.3-cm increments along the midrib. Midribs (n=15) were immediately immersed for 30 s in one of five treatment solutions: deionized water (wounded control), L-cysteine (4.1 mM), naringenin (1.8 mM) with 20% dimethyl sulfoxide (DMSO), serotonin (2.8 or 5.7 mM) or melatonin (4.3 mM) with 0.50% DMSO. Immediately following immersion, the midribs for each treatment were patted dry using paper towels and placed (n=5) in a breathable, high-density polyethylene bag (n=3) (Narrow Profile Produce Bags [14×18 inches] Model No. S-19156, Uline®, Pleasant Prairie, WI). Unwounded control midribs were stored in the same manner. To allow for direct comparison, each cut site on each midrib was assigned an initial discoloration value on day 1 based on the coloration of the rib. Samples were stored at 5° C. with 95-98% relative humidity (RH) for 5 d, simulating commercial storage.
Unwounded, wounded, and compound-treated wounded midrib samples were collected for untargeted metabolite analysis to identify global metabolite changes in response to melatonin application and targeted metabolite analysis to quantify chlorogenic acid a major caffeoyl compound in lettuce. For both targeted and untargeted metabolite analyses, fresh samples (500-800 mg) of the midribs from each treatment (n=3) were weighed, then immediately frozen in liquid nitrogen and stored at −80° C. for subsequent metabolite extraction. Frozen samples were extracted with a 50% methanol extraction solution containing a 1:1 (v:v) of methanol with deionized water. Samples were completely submerged in a 1:1.5 (w:v) of the sample weight (mg) to extraction solution volume (μL), respectively, and incubated at 65° C. for 90 min and then centrifuged at 9660×g for 10 min (MC-12 High Speed Micro Centrifuge, Benchmark Scientific, Edison, NJ). The supernatant was transferred to a new tube and filtered with a 0.45 μm filter (Choice, Thermo Scientific, Wilmington, DE). An aliquot of 400 μL was vacuum-dried.
For chlorogenic acid quantification, vacuum-dried samples were resuspended with 50 μL of 50% methanol. A 10 μL volume of extract was analyzed on an UltiMate 3000 High Performance Liquid Chromatography (HPLC) system (Thermo Fisher Scientific, Ward Hill, MA, USA) equipped with a diode array detector (DAD) in the UV-VIS region 200 to 500 nm. The compounds were separated on an Acclaim™ RSLC PA2 column (150 mm×2.1 mm; 2.2 μm) (Thermo Fisher Scientific, Ward Hill, MA, USA) coupled with a C18 guard column (10 mm×3 mm; 5 μm). The mobile phase consisted of solvent A (0.1% formic acid (v/v) in water) and solvent B (100% acetonitrile), and the gradient as follows: 5% to 20% increase of solvent B at 0.3 to 0.4 min, 20% to 25% increase solvent B at 5.25 to 12.5 min, 25% to 95% increase solvent B at 12.5 to 16.5 min, and 95% solvent B at 16.5 to 20 min. The flow rate was 0.4 mL min^−1 and the column temperature was 40° C. The level of chlorogenic acid was quantified based on the peak area at 328 nm and the standard curve using authentic standard (Sigma Aldrich; St. Louis, MO, USA).
The imaging data (a* value), enzyme activity (PAL and PPO), and metabolite (chlorogenic acid) results were expressed as mean±standard error and analyzed by lettuce type (iceberg or Romaine). For imaging data, an unpaired t-test was used to identify differences within a treatment throughout storage and among treatment groups at each time point. Treatment groups were defined as wounded, unwounded, L-cysteine, and melatonin. […]

[2] = tested on: iceberg and Romaine lettuce midribs; assay: Objective pink rib severity: a* value by RGB image analysis of cut sites; format: in vivo
Text: as §1
Objective evaluations were also made after 1, 3, and 5 d by capturing an image of each wounded midrib using a digital camera (Nikon D5200, Nikon, Melville, NY, USA) under full spectrum LED lighting (Sunco Lighting, Valencia, CA, USA) with 4100 Lumens at a distance of 1.12 m. Only unwounded and treated (L-cysteine or melatonin) midribs from Test 1 were measured using this method. The camera settings were on manual mode ISO400, shutter speed 1/125, aperture 5.6, and no zoom or flash; distance from the tissue was approximately 18 inches. The white balance of the camera was set with a gray card prior to each imaging session. GNU Image Manipulation Program (GIMP, version 2.10.14; The GIMP Project c/o GNOME Foundation, Orinda, CA, USA) was used to isolate pixels from an area 1 mm in width along the length of each cut site. Because a cut site is required as a guide for pixel extraction, no data was collected from images of the unwounded midribs.
Isolated pixels were converted from the RGB to the L*a*b* color space (Commission Internationale de l'Elcairage) with the “convertColor” function in R version 4.0.0 (R Core Team, 2020), using Illuminant D65 as the white reference. The mean a* value was calculated for each group of isolated cut site pixels at each time point. In the L*a*b* color space, […] the degree of redness (+) or greenness (−); thus, the mean a* at each cut site quantified the severity of pink rib discoloration. R was also applied to subset the data, to ensure that the cut sites chosen for further analysis had similar initial color. The a* values ranged from −3 to 0 for iceberg lettuce and −6 to −3 for Romaine.
The imaging data (a* value), enzyme activity (PAL and PPO), and metabolite (chlorogenic acid) results were expressed as mean±standard error and analyzed by lettuce type (iceberg or Romaine). For imaging data, an unpaired t-test was used to identify differences within a treatment throughout storage and among treatment groups at each time point. Treatment groups were defined as wounded, unwounded, L-cysteine, and melatonin. […] Analyses of variance were performed for PAL, PPO, and metabolite analyses using SAS software (version 9.4; SAS Institute, Cary, NC) to identify differences among treatment groups. Differences among treatments groups were separated by Tukey's Honest Significant Difference (HSD) test with a confidence level of 95%. The correlation between visual rating and a* value was evaluated for significance via an F-test, from which the P-value of the correlation was calculated.

[3] = tested on: fresh-cut iceberg lettuce; conditions: cited from earlier work
loquat = conditions: melatonin; 25 d storage at 4° C.; cited from earlier work

| SMILES | chlorogenic acid concentration ([1]; Romaine) [µg/g] | effect on chlorogenic acid concentration [1] | chlorogenic acid concentration ([1]; iceberg) [µg/g] | change of a* value ([2]; L-cysteine 4.1 mM, Romaine, after 3 d (P=0.0242)) | change of a* value ([2]; L-cysteine 4.1 mM, iceberg, after 3 d (P=0.0242)) | change of a* value ([2]; L-cysteine 4.1 mM, iceberg, after 5 d (P=0.00059)) | reduction of discoloration of midrib surface area ([3]; L-cysteine 8.3 mM, 6 d at 8° C., vs control) | delay of pink rib development ([3]; L-cysteine 0.1% or 8.3 mM, 8° C., untreated discolored after 2 d) [days] | pink rib development, share of midrib surface area ([3]; L-cysteine 0.1% or 8.3 mM, 6 d at 8° C.) | chlorogenic acid concentration (loquat) | quality and lignification (loquat) | change of a* value ([2]; melatonin 4.3 mM, Romaine, between days 3 and 5) | a* value versus control ([2]; melatonin 4.3 mM, Romaine, day 5, control mean 1.49) | mean a* value ([2]; melatonin 4.3 mM, Romaine, day 5 at 5° C.) | change of a* value ([2]; melatonin 4.3 mM, iceberg, throughout 5 d storage) | a* values versus control treatments, overall ([2]; melatonin, iceberg and Romaine) |
| --- | --- | --- | --- | --- | --- | --- | --- | --- | --- | --- | --- | --- | --- | --- | --- | --- |
| N[C@@H](CS)C(=O)O [L-cysteine] | 3.11 | neither L-cysteine nor melatonin significantly reduced chlorogenic acid concentration | 1.55 | increase | increased | increased | greater than 80% | 6 | < 20 % of the midrib surface area | – | – | – | – | – | – | – |
| COc1ccc2[nH]cc(CCNC(C)=O)c2c1 [melatonin] | 3.11 | neither L-cysteine nor melatonin significantly reduced chlorogenic acid concentration; also recorded: neither enzyme activity (PAL or PPO) nor chlorogenic acid concentration were impacted; also recorded: did not significantly affect PAL or PPO enzyme activities nor formation of chlorogenic acid | 1.55 | – | – | – | – | – | – | increased | maintaining quality and delaying lignification | increasing | no longer significantly different | −0.67 | did not increase throughout storage | significantly lower a* values |
